Counter-ions that a name gives are not always drawn.
Key:
[1] = tested on: interferon regulatory factor 3 (IRF3) in HCT116-Dual cells; experiment: HCT116-Dual Cell Luciferase Assay (ISG54 promoter, IRF3 activity); format: cell-based; details: ENPP1 inhibitor usually 10 μM plus cGAMP 10 μM, 48 hours, Lucia luciferase
Source text: HCT116-Dual™ cells express genes encoding luciferase secreted under the control of the interferon-stimulated gene 54 (ISG54) promoter along with five interferon-stimulated response elements. The HCT116-Dual™ cell line was used to measure and monitor the activity of interferon regulatory factor 3 (IRF3), which induces production of type I interferon and relates to downstream signaling, and Lucia secreted in the culture medium was used to generate luminescence in a luciferase reaction.
HCT116-Dual™ cells were cultured at 2×10^4 cells/well (93.4 μL) in a 96-well plate for one day in a DMEM medium containing 10% FBS and 25 mM HEPES (pH 7.2-7.5). The cells were treated with 3.3 μL of ENPP1 inhibitor (usually 10 μM) and then 3.3 μL of cGAMP (10 μM) to set the final volume to 100 μL (The final fraction of DMSO was 0.1%). The cells treated with ENPP1 inhibitor and cGAMP were cultured at 37° C. for 48 hours and 50 μL of Quanti-Luc reaction solution was added to 20 μL of cell culture medium to measure luciferase activity. The increase in interferon regulatory factor 3 (IRF3) by the compound compared to cGAMP was determined as fold.

[2] = target: T1, human recombinant ENPP1 enzymes (Homo sapiens, UniProt P22413); experiment: ENPP1 Enzyme Assay with cGAMP Substrate (AMP-Glo); format: biochemical; details: human recombinant ENPP1 3 ng/reaction, cGAMP 5 μM, 37° C. 90 minutes, average of two or more tests; read-out: Enzymatic activity IC50
T1 construct: purchased R & D systems
T1 sequence (P22413 1-925): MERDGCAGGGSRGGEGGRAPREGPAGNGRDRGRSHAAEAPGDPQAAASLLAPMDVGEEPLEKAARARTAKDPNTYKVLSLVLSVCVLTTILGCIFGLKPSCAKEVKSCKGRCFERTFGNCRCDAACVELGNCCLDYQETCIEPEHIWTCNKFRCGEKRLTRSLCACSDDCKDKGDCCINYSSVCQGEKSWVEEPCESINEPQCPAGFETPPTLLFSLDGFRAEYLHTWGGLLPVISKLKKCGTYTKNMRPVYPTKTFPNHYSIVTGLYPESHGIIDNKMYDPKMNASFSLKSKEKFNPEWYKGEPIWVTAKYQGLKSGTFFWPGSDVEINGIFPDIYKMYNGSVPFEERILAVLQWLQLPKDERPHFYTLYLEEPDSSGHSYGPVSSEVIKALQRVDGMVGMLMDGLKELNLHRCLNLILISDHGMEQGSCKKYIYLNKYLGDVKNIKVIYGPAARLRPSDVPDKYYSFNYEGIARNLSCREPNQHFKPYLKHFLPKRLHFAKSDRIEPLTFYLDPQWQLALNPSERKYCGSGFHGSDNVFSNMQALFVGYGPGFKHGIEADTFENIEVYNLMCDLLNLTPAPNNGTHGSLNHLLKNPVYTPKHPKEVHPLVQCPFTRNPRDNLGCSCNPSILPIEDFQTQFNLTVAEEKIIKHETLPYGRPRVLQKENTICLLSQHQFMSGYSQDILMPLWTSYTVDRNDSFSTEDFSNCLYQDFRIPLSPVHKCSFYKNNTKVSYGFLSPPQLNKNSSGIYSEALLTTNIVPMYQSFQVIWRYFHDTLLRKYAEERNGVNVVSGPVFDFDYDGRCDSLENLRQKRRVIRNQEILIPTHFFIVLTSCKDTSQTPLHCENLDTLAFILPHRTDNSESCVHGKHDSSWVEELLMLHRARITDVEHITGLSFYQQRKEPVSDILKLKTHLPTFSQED
Summary of the method: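 Human recombinant ENPP1 (3 ng/reaction) preincubated 5–10 min at RT with inhibitor, then reacted with 5 µM cGAMP for 90 min at 37 °C in 50 mM Tris pH 8.5, 250 mM NaCl, 0.5 mM CaCl2, 1 µM ZnCl2, 1% DMSO. AMP produced read by AMP-Glo luminescence; IC50 from 3-parameter fit, averaged over ≥2 runs.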

Molecule | Cellular activity: increase in IRF3 by the compound compared to cGAMP, as fold [1] | IC50 [2] [nM]
5-(7-oxo-5,6,7,8-tetrahydro-1,8-naphthyridin-4-yl)isoindoline-2-sulfamide hydrochloride [Example 143] | B (1< Fold <2) | –
Cl.Nc1ccc(F)c(-c2ccnc3[nH]c(=O)ccc23)c1 [Example 8] | B (1< Fold <2) | –
Cl.NCc1ccc(-c2ccnc3[nH]c(=O)ccc23)cc1 [Example 10, 5-(4-(aminomethyl)phenyl)-1,8-naphthyridin-2(1H)-one hydrochloride] | B (1< Fold <2) | < 1000
Cl.NCc1ccc(-c2ccnc3[nH]c(=O)ccc23)c(F)c1 [Example 11, 5-(4-(aminomethyl)-2-fluorophenyl)-1,8-naphthyridin-2(1H)-one hydrochloride] | A (>2) | < 1000
Cl.NCc1ccc(-c2ccnc3[nH]c(=O)ccc23)cc1F [Example 12, 5-(4-(aminomethyl)-3-fluorophenyl)-1,8-naphthyridin-2(1H)-one hydrochloride] | A (>2) | < 1000
Cl.NCc1ccc(-c2ccnc3[nH]c(=O)ccc23)c(F)c1F [Example 13, 5-(4-(aminomethyl)-2,3-difluorophenyl)-1,8-naphthyridin-2(1H)-one hydrochloride] | A (>2) | < 1000
CC(N)c1ccc(-c2ccnc3[nH]c(=O)ccc23)cc1.Cl (stereo not drawn) [Example 14, 5-(4-(1-aminoethyl)phenyl)-1,8-naphthyridin-2(1H)-one hydrochloride] | B (1< Fold <2) | < 1000
C[C@@H](N)c1ccc(-c2ccnc3[nH]c(=O)ccc23)cc1.Cl [Example 15, (R)-5-(4-(1-aminoethyl)phenyl)-1,8-naphthyridin-2(1H)-one hydrochloride] | B (1< Fold <2) | < 1000
CC(C)NCc1ccc(-c2ccnc3[nH]c(=O)ccc23)c(F)c1.Cl [Example 21, 5-(2-fluoro-4-((isopropylamine)methyl)phenyl)-1,8-naphthyridin-2(1H)-one hydrochloride] | B (1< Fold <2) | > 10000
Cl.O=c1ccc2c(-c3ccc(CNC4CC4)cc3F)ccnc2[nH]1 [Example 22, 5-(4-((cyclopropylamino)methyl)-2-fluorophenyl)-1,8-naphthyridin-2(1H)-one hydrochloride] | B (1< Fold <2) | 1000 to 10000
CNCc1ccc(-c2ccnc3[nH]c(=O)ccc23)cc1F.Cl [Example 23, 5-(3-fluoro-4-((methylamino)methyl)phenyl)-1,8-naphthyridin-2(1H)-one hydrochloride] | B (1< Fold <2) | 1000 to 10000
CCNCc1ccc(-c2ccnc3[nH]c(=O)ccc23)cc1F.Cl [Example 24, 5-(4-((ethylamino)methyl)-3-fluorophenyl)-1,8-naphthyridin-2(1H)-one hydrochloride] | B (1< Fold <2) | > 10000
Cl.O=c1ccc2c(-c3ccc(CNC4CC4)c(F)c3)ccnc2[nH]1 [Example 25, 5-(4-((cyclopropylamino)methyl)-3-fluorophenyl)-1,8-naphthyridin-2(1H)-one hydrochloride] | A (>2) | 1000 to 10000
Cl.O=c1ccc2c(-c3cc4c(cc3F)CCNC4)ccnc2[nH]1 [Example 28, 5-(6-fluoro-1,2,3,4-tetrahydroisoquinolin-7-yl)-1,8-naphthyridin-2(1H)-one hydrochloride] | B (1< Fold <2) | < 1000
NS(=O)(=O)Nc1cccc(-c2ccnc3[nH]c(=O)ccc23)c1 [Example 35, N-(3-(7-oxo-7,8-dihydro-1,8-naphthyridin-4-yl)phenyl)sulfamide hydrochloride] | B (1< Fold <2) | < 1000
NS(=O)(=O)Nc1cc(-c2ccnc3[nH]c(=O)ccc23)ccc1F [Example 36, N-(2-fluoro-5-(7-oxo-7,8-dihydro-1,8-naphthyridin-4-yl)phenyl)sulfamide hydrochloride] | B (1< Fold <2) | < 1000
NS(=O)(=O)NCc1cccc(-c2ccnc3[nH]c(=O)ccc23)c1 [Example 37, N-(3-(7-oxo-7,8-dihydro-1,8-naphthyridin-4-yl)benzyl)sulfamide] | B (1< Fold <2) | < 1000
NS(=O)(=O)NCc1cc(-c2ccnc3[nH]c(=O)ccc23)ccc1F [Example 38, N-(2-fluoro-5-(7-oxo-7,8-dihydro-1,8-naphthyridin-4-yl)benzyl)sulfamide hydrochloride] | B (1< Fold <2) | < 1000
NS(=O)(=O)NCc1ccc(-c2ccnc3[nH]c(=O)ccc23)cc1F [Example 41, N-(2-fluoro-4-(7-oxo-7,8-dihydro-1,8-naphthyridin-4-yl)benzyl)sulfamide] | B (1< Fold <2) | –
NS(=O)(=O)NCc1ccc(-c2ccnc3[nH]c(=O)ccc23)c(F)c1 [Example 42, N-(3-fluoro-4-(7-oxo-7,8-dihydro-1,8-naphthyridin-4-yl)benzyl)sulfamide hydrochloride] | A (>2) | < 1000
NS(=O)(=O)NCc1ccc(-c2ccnc3[nH]c(=O)ccc23)c(F)c1F [Example 43, N-(2,3-difluoro-4-(7-oxo-7,8-dihydro-1,8-naphthyridin-4-yl)benzyl)sulfamide hydrochloride] | B (1< Fold <2) | < 1000
CC(NS(N)(=O)=O)c1ccc(-c2ccnc3[nH]c(=O)ccc23)cc1.Cl (stereo not drawn) [Example 45, N-(1-(4-(7-oxo-7,8-dihydro-1,8-naphthyridin-4-yl)phenyl)ethyl)sulfamide hydrochloride] | B (1< Fold <2) | < 1000
CN(Cc1ccc(-c2ccnc3[nH]c(=O)ccc23)cc1F)S(N)(=O)=O.Cl [Example 52, N-(2-fluoro-4-(7-oxo-7,8-dihydro-1,8-naphthyridin-4-yl)benzyl)-N-methylsulfamide hydrochloride] | B (1< Fold <2) | < 1000
CCN(Cc1ccc(-c2ccnc3[nH]c(=O)ccc23)cc1F)S(N)(=O)=O.Cl [Example 53, N-ethyl-N-(2-fluoro-4-(7-oxo-7,8-dihydro-1,8-naphthyridin-4-yl)benzyl)sulfamide hydrochloride] | B (1< Fold <2) | < 1000

From patent US20240140944A1, “NOVEL NAPHTHYRIDINONE DERIVATIVE HAVING INHIBITORY ACTIVITY AGAINST ECTONUCLEOTIDE PYROPHOSPHATASE-PHOSPHODIESTERASE AND USE THEREOF” (TXINNO BIOSCIENCE INC., priority 2020, published 2024)
